Experimental data reported in PubChem BioAssay (NCI).
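Method: 48-hour compound exposure of cells in 96-well plates, five concentrations, linear interpolation of endpoints. The concentration for 50% growth inhibition is given as GI50. The concentration for full growth arrest is given as TGI.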

How the values were obtained:
Assay in all cases: NCI tumour cell line growth inhibition, 48 h
[1] = tested on: SK-MEL-28 melanoma
[2] = tested on: UACC-62 melanoma
[3] = tested on: SF-539 CNS
[4] = tested on: U251 CNS
[5] = tested on: HT29 colon
[6] = tested on: CAKI-1 renal
[7] = tested on: SK-MEL-2 melanoma
[8] = tested on: SW-620 colon
[9] = tested on: SNB-19 CNS
[10] = tested on: NCI-H460 lung
[11] = tested on: EKVX NSCLC
[12] = tested on: OVCAR-8 ovarian
[13] = tested on: M14 melanoma
[14] = tested on: RPMI-8226 leukemia
[15] = tested on: MDA-MB-435
[16] = tested on: HCC-2998 colon
[17] = tested on: UO-31 renal
[18] = tested on: MOLT-4 leukemia
[19] = tested on: NCI-H522 lung
[20] = tested on: OVCAR-4 ovarian
[21] = tested on: T-47D breast
[22] = tested on: HS 578T breast
[23] = tested on: IGROV1 ovarian
[24] = tested on: RXF 393 renal
[25] = tested on: NCI/ADR-RES ovarian
[26] = tested on: TK-10 renal
[27] = tested on: UACC-257 melanoma
[28] = tested on: COLO 205 colon
[29] = tested on: K-562 leukemia
[30] = tested on: ACHN renal
[31] = tested on: HL-60(TB) leukemia
[32] = tested on: NCI-H23 lung
[33] = tested on: SF-268 CNS
[34] = tested on: CCRF-CEM leukemia
[35] = tested on: SNB-75 CNS
[36] = tested on: SN12C renal
[37] = tested on: OVCAR-5 ovarian
[38] = tested on: SK-MEL-5 melanoma
[39] = tested on: 786-0 renal
[40] = tested on: A549 NSCLC
[41] = tested on: HOP-92 NSCLC
[42] = tested on: SF-295 CNS
[43] = tested on: HCT-116 colon
[44] = tested on: SR leukemia
[45] = tested on: NCI-H226 lung
[46] = tested on: OVCAR-3 ovarian
[47] = tested on: LOX IMVI melanoma
[48] = tested on: SK-OV-3 ovarian
[49] = tested on: HCT-15 colon
[50] = tested on: MDA-MB-231 breast
[51] = tested on: MALME-3M melanoma
[52] = tested on: DU-145 prostate
[53] = tested on: PC-3 prostate
[54] = tested on: MCF7 breast
[55] = tested on: HOP-62 NSCLC
[56] = tested on: KM12 colon

Question: Fc1cc(-c2nnc3n2N=C(c2ccc(Cl)cc2Cl)CS3)c(Cl)cc1Cl was tested. Which GI50 [1] did it give?
Answer: 40.2 µM

Question: What about the TGI [1] of the same molecule?
Answer: > 100 µM

Question: And the GI50 [2]?
Answer: 24.9 µM

Question: And the TGI [2]?
Answer: 99.6 µM

Question: What about the GI50 [3] of the same molecule?
Answer: 39.2 µM

Question: And the TGI [3]?
Answer: > 100 µM

Question: And the GI50 [4]?
Answer: 38.2 µM

Question: And the TGI [4]?
Answer: > 100 µM

Question: And the GI50 [5]?
Answer: 40.5 µM

Question: What about the TGI [5] of the same molecule?
Answer: > 100 µM

Question: What about the GI50 [6] of the same molecule?
Answer: 35.9 µM

Question: What about the TGI [6] of the same molecule?
Answer: > 100 µM

Question: And the GI50 [7]?
Answer: > 100 µM

Question: What about the TGI [7] of the same molecule?
Answer: > 100 µM

Question: What about the GI50 [8] of the same molecule?
Answer: 36.8 µM

Question: What about the TGI [8] of the same molecule?
Answer: > 100 µM

Question: What about the GI50 [9] of the same molecule?
Answer: 25.4 µM

Question: And the TGI [9]?
Answer: > 100 µM

Question: What about the GI50 [10] of the same molecule?
Answer: 37.3 µM

Question: And the TGI [10]?
Answer: > 100 µM

Question: And the GI50 [11]?
Answer: 58.5 µM

Question: What about the TGI [11] of the same molecule?
Answer: > 100 µM

Question: What about the GI50 [12] of the same molecule?
Answer: 57.3 µM

Question: What about the TGI [12] of the same molecule?
Answer: > 100 µM

Question: What about the GI50 [13] of the same molecule?
Answer: 37.5 µM

Question: And the TGI [13]?
Answer: > 100 µM

Question: And the GI50 [14]?
Answer: 25.3 µM

Question: And the TGI [14]?
Answer: 95.7 µM

Question: What about the GI50 [15] of the same molecule?
Answer: 24.5 µM

Question: What about the TGI [15] of the same molecule?
Answer: 75.9 µM

Question: What about the GI50 [16] of the same molecule?
Answer: 35 µM

Question: And the TGI [16]?
Answer: > 100 µM

Question: And the GI50 [17]?
Answer: 60.2 µM

Question: And the TGI [17]?
Answer: > 100 µM

Question: What about the GI50 [18] of the same molecule?
Answer: 75.1 µM

Question: What about the TGI [18] of the same molecule?
Answer: > 100 µM

Question: What about the GI50 [19] of the same molecule?
Answer: 50.8 µM

Question: And the TGI [19]?
Answer: > 100 µM

Question: And the GI50 [20]?
Answer: > 100 µM

Question: And the TGI [20]?
Answer: > 100 µM

Question: And the GI50 [21]?
Answer: 11.7 µM

Question: And the TGI [21]?
Answer: 48.5 µM

Question: And the GI50 [22]?
Answer: 33.6 µM

Question: And the TGI [22]?
Answer: > 100 µM

Question: And the GI50 [23]?
Answer: 50.4 µM

Question: And the TGI [23]?
Answer: > 100 µM

Question: What about the GI50 [24] of the same molecule?
Answer: 51 µM

Question: What about the TGI [24] of the same molecule?
Answer: > 100 µM

Question: And the GI50 [25]?
Answer: 30.8 µM

Question: And the TGI [25]?
Answer: 99.5 µM

Question: What about the GI50 [26] of the same molecule?
Answer: 77.3 µM

Question: What about the TGI [26] of the same molecule?
Answer: > 100 µM

Question: And the GI50 [27]?
Answer: 86 µM

Question: And the TGI [27]?
Answer: > 100 µM

Question: And the GI50 [28]?
Answer: 32.9 µM

Question: What about the TGI [28] of the same molecule?
Answer: > 100 µM

Question: And the GI50 [29]?
Answer: 47.5 µM

Question: And the TGI [29]?
Answer: > 100 µM

Question: And the GI50 [30]?
Answer: 66.6 µM

Question: What about the TGI [30] of the same molecule?
Answer: > 100 µM

Question: And the GI50 [31]?
Answer: > 100 µM

Question: And the TGI [31]?
Answer: > 100 µM

Question: And the GI50 [32]?
Answer: 82.5 µM

Question: What about the TGI [32] of the same molecule?
Answer: > 100 µM

Question: What about the GI50 [33] of the same molecule?
Answer: 36.6 µM

Question: And the TGI [33]?
Answer: > 100 µM

Question: And the GI50 [34]?
Answer: 27.6 µM

Question: And the TGI [34]?
Answer: > 100 µM

Question: What about the GI50 [35] of the same molecule?
Answer: > 100 µM

Question: And the TGI [35]?
Answer: > 100 µM

Question: And the GI50 [36]?
Answer: 56.4 µM

Question: And the TGI [36]?
Answer: > 100 µM

Question: And the GI50 [37]?
Answer: > 100 µM

Question: And the TGI [37]?
Answer: > 100 µM

Question: What about the GI50 [38] of the same molecule?
Answer: 26.1 µM

Question: What about the TGI [38] of the same molecule?
Answer: 65.1 µM

Question: What about the GI50 [39] of the same molecule?
Answer: 47.1 µM

Question: What about the TGI [39] of the same molecule?
Answer: > 100 µM

Question: And the GI50 [40]?
Answer: 58 µM

Question: And the TGI [40]?
Answer: > 100 µM

Question: And the GI50 [41]?
Answer: 54.2 µM

Question: And the TGI [41]?
Answer: > 100 µM

Question: And the GI50 [42]?
Answer: 36.4 µM

Question: What about the TGI [42] of the same molecule?
Answer: > 100 µM

Question: And the GI50 [43]?
Answer: 25.4 µM

Question: What about the TGI [43] of the same molecule?
Answer: 68.7 µM

Question: And the GI50 [44]?
Answer: > 100 µM

Question: What about the TGI [44] of the same molecule?
Answer: > 100 µM

Question: And the GI50 [45]?
Answer: 36.5 µM

Question: What about the TGI [45] of the same molecule?
Answer: > 100 µM

Question: What about the GI50 [46] of the same molecule?
Answer: 22.8 µM

Question: What about the TGI [46] of the same molecule?
Answer: 88.1 µM

Question: What about the GI50 [47] of the same molecule?
Answer: 34.3 µM

Question: And the TGI [47]?
Answer: > 100 µM

Question: And the GI50 [48]?
Answer: 48 µM

Question: What about the TGI [48] of the same molecule?
Answer: > 100 µM

Question: What about the GI50 [49] of the same molecule?
Answer: 38.3 µM

Question: And the TGI [49]?
Answer: > 100 µM

Question: And the GI50 [50]?
Answer: 33.7 µM

Question: What about the TGI [50] of the same molecule?
Answer: > 100 µM

Question: What about the GI50 [51] of the same molecule?
Answer: 26.6 µM

Question: What about the TGI [51] of the same molecule?
Answer: 94.4 µM

Question: And the GI50 [52]?
Answer: 49.5 µM

Question: And the TGI [52]?
Answer: > 100 µM

Question: What about the GI50 [53] of the same molecule?
Answer: 39.2 µM

Question: And the TGI [53]?
Answer: > 100 µM

Question: What about the GI50 [54] of the same molecule?
Answer: 31.3 µM

Question: And the TGI [54]?
Answer: > 100 µM

Question: What about the GI50 [55] of the same molecule?
Answer: 44.2 µM

Question: What about the TGI [55] of the same molecule?
Answer: > 100 µM

Question: And the GI50 [56]?
Answer: 41.9 µM

Question: What about the TGI [56] of the same molecule?
Answer: > 100 µM
